This is an account of results in ChEMBL document CHEMBL3044839, “Bisdesmosidic saponins from Securidaca longepedunculata roots: evaluation of deterrency and toxicity to Coleopteran storage pests” (2009).

Test [1] relates to Callosobruchus maculatus. The test is described as follows: Insecticidal activity against Callosobruchus maculatus in compound pretreated stored cowpea commodities assessed as decrease in number of adults emerging in F1 generation at 2.5 mg. It is filed as functional, organism-based.
Test [2] concerns Callosobruchus maculatus. The test is described as follows: Insecticidal activity against Callosobruchus maculatus in compound pretreated stored cowpea commodities assessed as decrease in egg hatching on the surface of seeds at 2.5 mg. The class given is functional, organism-based.
Test [3] concerns Callosobruchus maculatus. The test is described as follows: Insecticidal activity against adult Callosobruchus maculatus in compound pretreated stored cowpea commodities assessed as decrease in number of oviposted eggs on the surface of seeds at 2.5 mg by choice bioassay. It is filed as functional, organism-based.
Test [4] has as its system Sitophilus zeamais. The test is described as follows: Insecticidal activity against adult Sitophilus zeamais in compound pretreated stored maize commodities assessed as mortality at 2.5 mg measured after 2 weeks. It is filed as functional, organism-based.
Test [5] has as its system Sitophilus zeamais. The test is described as follows: Insecticidal activity against adult Sitophilus zeamais in compound pretreated stored maize commodities assessed as decrease in number of damaged seeds at 2.5 mg measured after 2 weeks (reference value: >95%). The class given is functional. The arrangement: scale not given: the % may be the effect or the level left.

Active and inactive are the calls of the source. The rule behind the calls is not given here.

Take `COc1ccc(C=CC(=O)O[C@@H]2[C@H](O)[C@@H](O[C@@H]3O[C@@H](C)[C@H](O[C@@H]4OC[C@@H](O)[C@H](O[C@@H]5OC[C@H](O)[C@H](O)[C@H]5O)[C@H]4O)[C@@H](O[C@@H]4OC[C@](O)(CO)[C@H]4O)[C@H]3O)[C@H](OC(=O)[C@]34CCC(C)(C)C[C@H]3C3=CC[C@@H]5[C@@]6(C)C[C@H](O)[C@H](O[C@@H]7O[C@H](CO)[C@@H](O)[C@H](O)[C@H]7O)[C@@](C)(C(=O)O)[C@@H]6CC[C@@]5(C)[C@]3(C)CC4)O[C@@H]2C)cc1`: the result in test [1], in test [2] and in test [3] was Active. Moreover, in test [4], the mortality result was “Active”. Also, in test [5], the Activity is recorded as less than 35%.
